Experimental findings from patent US9340590B2 (priority 2011, dated 2016) are described below.

SMILES strings stand for the structures. Where two headings read alike, the source gives them in different places. Positions of bridges follow the written chain, without caps; N, C: chain ends. Non-standard residues stand in square brackets, D forms with d. Residues, ends and D or L forms follow the SMILES beside them. Groups on a side chain read outwards from the residue. 1Nal = N[C@@H](Cc1cccc2ccccc12)C(=O)O; Pra = C#CC[C@H](N)C(=O)O; Abu = CC[C@H](N)C(=O)O Bounds are passed on as bounds.

What all share (test): cell-based
For assay [1], the target named is hNav1.3 (Homo sapiens, UniProt Q9NY46). Particulars: IonWorks Quattro, read-out: IWQ Use Nav1.3.
The target of assay [2] is hNav1.7 (Homo sapiens, UniProt Q15858). Format: cell-based. Particulars: IonWorks Quattro, read-out: IWQ Use Nav1.7.
Assay [3] concerns the target hNav1.5 (Homo sapiens, UniProt Q14524). As to conditions: IonWorks Quattro, read-out: IWQ Use Nav1.5.

hNav1.7, sequence (Q15858 whole entry, looked up): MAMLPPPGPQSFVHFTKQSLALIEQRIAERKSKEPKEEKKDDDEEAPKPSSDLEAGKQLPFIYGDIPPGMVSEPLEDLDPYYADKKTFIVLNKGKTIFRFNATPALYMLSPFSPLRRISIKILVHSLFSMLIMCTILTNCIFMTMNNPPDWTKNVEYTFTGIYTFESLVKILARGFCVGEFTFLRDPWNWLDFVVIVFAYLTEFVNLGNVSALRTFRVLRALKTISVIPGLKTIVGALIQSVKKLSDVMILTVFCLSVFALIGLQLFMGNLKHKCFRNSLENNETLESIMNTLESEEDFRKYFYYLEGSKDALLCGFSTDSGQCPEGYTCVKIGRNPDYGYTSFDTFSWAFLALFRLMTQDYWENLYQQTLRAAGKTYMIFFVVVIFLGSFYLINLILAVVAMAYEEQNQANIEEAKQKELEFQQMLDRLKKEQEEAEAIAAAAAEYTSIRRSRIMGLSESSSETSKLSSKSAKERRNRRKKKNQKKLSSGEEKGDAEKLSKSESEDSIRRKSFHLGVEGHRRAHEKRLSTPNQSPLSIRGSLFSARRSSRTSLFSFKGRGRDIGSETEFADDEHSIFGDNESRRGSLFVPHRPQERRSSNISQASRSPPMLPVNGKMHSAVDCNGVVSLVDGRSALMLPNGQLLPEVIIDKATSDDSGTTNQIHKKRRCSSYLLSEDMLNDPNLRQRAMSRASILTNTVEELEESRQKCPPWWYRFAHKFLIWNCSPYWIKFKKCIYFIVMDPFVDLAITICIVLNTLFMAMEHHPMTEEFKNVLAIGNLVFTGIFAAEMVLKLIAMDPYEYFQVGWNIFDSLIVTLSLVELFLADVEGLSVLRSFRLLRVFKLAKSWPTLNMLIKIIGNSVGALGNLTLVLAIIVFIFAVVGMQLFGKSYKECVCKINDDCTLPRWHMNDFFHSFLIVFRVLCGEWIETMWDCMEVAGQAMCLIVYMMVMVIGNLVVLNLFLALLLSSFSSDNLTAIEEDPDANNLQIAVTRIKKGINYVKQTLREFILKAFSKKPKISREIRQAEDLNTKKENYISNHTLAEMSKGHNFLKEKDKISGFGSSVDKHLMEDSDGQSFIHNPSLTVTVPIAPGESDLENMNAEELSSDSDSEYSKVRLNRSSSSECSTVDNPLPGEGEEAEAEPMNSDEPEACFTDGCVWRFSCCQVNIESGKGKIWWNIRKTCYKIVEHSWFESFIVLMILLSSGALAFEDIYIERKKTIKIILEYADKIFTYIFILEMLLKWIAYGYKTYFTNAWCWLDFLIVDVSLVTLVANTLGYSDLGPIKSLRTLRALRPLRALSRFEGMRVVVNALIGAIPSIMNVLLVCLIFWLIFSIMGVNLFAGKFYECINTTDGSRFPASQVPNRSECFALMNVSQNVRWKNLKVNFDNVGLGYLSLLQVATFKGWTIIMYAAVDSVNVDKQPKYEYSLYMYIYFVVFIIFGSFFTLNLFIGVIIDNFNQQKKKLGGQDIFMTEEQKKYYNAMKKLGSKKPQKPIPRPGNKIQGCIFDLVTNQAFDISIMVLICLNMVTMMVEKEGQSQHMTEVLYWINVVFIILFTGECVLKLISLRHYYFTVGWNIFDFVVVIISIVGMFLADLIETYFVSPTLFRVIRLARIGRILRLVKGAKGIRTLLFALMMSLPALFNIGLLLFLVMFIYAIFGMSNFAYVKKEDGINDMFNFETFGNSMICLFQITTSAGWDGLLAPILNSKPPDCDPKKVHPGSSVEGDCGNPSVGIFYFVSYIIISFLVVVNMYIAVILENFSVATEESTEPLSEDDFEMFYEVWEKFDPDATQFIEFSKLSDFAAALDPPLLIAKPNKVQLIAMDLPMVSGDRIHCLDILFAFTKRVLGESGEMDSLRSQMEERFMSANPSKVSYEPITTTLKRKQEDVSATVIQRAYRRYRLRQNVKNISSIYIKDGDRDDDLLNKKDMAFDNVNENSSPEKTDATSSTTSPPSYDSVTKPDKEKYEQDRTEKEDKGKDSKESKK
hNav1.5, sequence (Q14524 whole entry, looked up): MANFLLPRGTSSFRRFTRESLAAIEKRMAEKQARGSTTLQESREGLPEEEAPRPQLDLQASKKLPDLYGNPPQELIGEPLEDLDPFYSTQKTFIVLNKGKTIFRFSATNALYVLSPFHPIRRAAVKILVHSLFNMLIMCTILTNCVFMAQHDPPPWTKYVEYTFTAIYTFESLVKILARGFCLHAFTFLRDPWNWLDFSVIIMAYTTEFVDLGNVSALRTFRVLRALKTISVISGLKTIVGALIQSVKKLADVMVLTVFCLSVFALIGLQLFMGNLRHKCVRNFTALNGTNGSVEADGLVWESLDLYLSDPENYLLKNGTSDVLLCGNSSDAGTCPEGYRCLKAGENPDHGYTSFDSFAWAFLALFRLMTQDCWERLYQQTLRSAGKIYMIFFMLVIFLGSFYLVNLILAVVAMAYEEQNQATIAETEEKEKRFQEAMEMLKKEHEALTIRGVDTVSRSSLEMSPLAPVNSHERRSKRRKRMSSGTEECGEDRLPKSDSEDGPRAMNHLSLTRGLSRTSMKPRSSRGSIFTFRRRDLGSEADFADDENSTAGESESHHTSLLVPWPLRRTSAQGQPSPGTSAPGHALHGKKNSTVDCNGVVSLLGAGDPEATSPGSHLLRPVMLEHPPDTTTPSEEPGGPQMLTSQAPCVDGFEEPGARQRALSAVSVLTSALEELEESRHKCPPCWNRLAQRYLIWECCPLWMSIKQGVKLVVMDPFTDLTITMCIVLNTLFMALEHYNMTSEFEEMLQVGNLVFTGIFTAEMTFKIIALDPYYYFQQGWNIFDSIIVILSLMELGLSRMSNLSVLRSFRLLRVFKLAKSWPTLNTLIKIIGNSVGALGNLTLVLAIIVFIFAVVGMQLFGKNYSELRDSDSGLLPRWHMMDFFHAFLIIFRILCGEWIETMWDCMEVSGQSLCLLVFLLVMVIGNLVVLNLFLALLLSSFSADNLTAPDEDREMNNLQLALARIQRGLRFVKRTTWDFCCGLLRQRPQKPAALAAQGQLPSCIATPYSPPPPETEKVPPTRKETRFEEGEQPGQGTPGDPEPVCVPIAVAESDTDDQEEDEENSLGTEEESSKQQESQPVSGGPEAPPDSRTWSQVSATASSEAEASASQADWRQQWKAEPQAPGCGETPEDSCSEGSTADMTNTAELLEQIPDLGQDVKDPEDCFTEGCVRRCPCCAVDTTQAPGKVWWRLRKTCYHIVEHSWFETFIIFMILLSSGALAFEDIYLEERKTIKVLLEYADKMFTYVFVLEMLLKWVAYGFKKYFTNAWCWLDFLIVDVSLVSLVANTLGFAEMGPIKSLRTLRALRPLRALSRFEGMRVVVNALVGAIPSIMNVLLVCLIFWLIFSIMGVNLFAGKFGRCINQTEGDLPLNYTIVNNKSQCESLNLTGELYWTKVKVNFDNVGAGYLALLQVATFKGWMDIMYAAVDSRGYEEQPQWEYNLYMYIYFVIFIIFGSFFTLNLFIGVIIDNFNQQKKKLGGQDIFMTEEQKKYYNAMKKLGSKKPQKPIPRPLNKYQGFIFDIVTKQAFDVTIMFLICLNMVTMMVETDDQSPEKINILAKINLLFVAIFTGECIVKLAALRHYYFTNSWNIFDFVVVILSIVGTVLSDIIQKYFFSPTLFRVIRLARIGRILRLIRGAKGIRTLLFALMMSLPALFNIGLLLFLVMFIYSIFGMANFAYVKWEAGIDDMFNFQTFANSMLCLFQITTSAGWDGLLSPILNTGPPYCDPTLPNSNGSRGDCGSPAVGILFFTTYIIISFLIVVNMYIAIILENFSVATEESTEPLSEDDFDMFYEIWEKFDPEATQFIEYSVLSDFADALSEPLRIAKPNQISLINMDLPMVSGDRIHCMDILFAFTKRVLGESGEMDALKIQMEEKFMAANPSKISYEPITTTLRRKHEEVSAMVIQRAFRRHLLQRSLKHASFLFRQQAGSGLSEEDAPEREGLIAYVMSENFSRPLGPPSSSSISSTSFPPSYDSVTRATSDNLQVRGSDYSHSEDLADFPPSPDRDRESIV

As for `CC[C@H](C)[C@@H]1NC(=O)[C@@H]2CSSC[C@@H]3NC(=O)[C@H](C(C)C)NC(=O)[C@H](CC(C)C)NC(=O)[C@H](CC(N)=O)NC(=O)[C@@H]4CCCN4C(=O)[C@H](CCCNC(=N)N)NC(=O)[C@H](CSSC[C@H](NC(=O)[C@@H](N)CC(=O)O)C(=O)N[C@@H](CC(C)C)C(=O)NCC(=O)N[C@@H](Cc4ccccc4)C(=O)N[C@@H](CCSC)C(=O)N[C@@H](CCCNC(=N)N)C(=O)N[C@@H](CCCCN)C(=O)N2)NC(=O)[C@H](CSSC[C@@H](C(=O)N[C@@H](CCCCN)C(=O)N[C@@H](Cc2cccc4ccccc24)C(=O)N[C@H](C(=O)N[C@@H](Cc2ccccc2)C(N)=O)C(C)C)NC(=O)[C@H](Cc2c[nH]c4ccccc24)NC(=O)[C@H](CCCNC(=N)N)NC(=O)[C@H](Cc2c[nH]cn2)NC(=O)[C@H]([C@@H](C)O)NC(=O)[C@H](CCCNC(=N)N)NC(=O)[C@H](CO)NC3=O)NC(=O)[C@H](CCCCN)NC(=O)[C@H](CC(=O)O)NC(=O)[C@H](CC(N)=O)NC(=O)[C@H](CC(=O)O)NC(=O)[C@@H]2CCCN2C1=O` [compound 251] (H-DCLGFMRKCIPDNDKCCRPNLVCSRTHRWCK[1Nal]VF-NH2; disulfide 2-17, 9-23, 16-30), the IC50 in assay [1] (use-dependent block, hNav1.3) stood at 2 nM; in assay [2] (use-dependent block, hNav1.7) it was 5 nM; in assay [3] (use-dependent block, hNav1.5), 2.56 µM.
`CC[C@H](C)[C@@H]1NC(=O)[C@@H]2CSSC[C@@H]3NC(=O)[C@H](C(C)C)NC(=O)[C@H](CC(C)C)NC(=O)[C@H](CC(N)=O)NC(=O)[C@@H]4CCCN4C(=O)[C@H](CCCNC(=N)N)NC(=O)[C@H](CSSC[C@H](NC(=O)[C@@H](N)CC(=O)O)C(=O)N[C@@H](CC(C)C)C(=O)NCC(=O)N[C@@H](C)C(=O)N[C@@H](CC(C)C)C(=O)N[C@@H](CCCNC(=N)N)C(=O)N[C@@H](CCCCN)C(=O)N2)NC(=O)[C@H](CSSC[C@@H](C(=O)N[C@@H](CCCCN)C(=O)N[C@@H](Cc2ccc(O)cc2)C(=O)N[C@H](C(=O)N[C@@H](Cc2ccccc2)C(=O)O)C(C)C)NC(=O)[C@H](Cc2c[nH]c4ccccc24)NC(=O)[C@H](CCCNC(=N)N)NC(=O)[C@H](Cc2c[nH]cn2)NC(=O)[C@H]([C@@H](C)O)NC(=O)[C@H](CCCNC(=N)N)NC(=O)[C@H](CO)NC3=O)NC(=O)[C@H](CCCCN)NC(=O)[C@H](CC(=O)O)NC(=O)[C@H](CC(=O)O)NC(=O)[C@H](CC(=O)O)NC(=O)[C@@H]2CCCN2C1=O` [compound 861] (H-DCLGALRKCIPDDDKCCRPNLVCSRTHRWCKYVF-OH; disulfide 2-17, 9-23, 16-30): the IC50 in assay [1] (use-dependent block, hNav1.3) was over 5000 nM; in assay [2] (use-dependent block, hNav1.7), over 5000 nM; in assay [3] (use-dependent block, hNav1.5), over 5 µM.
Take `CSCC[C@@H]1NC(=O)[C@H](C)NC(=O)CNC(=O)[C@H](CC(C)C)NC(=O)[C@@H](NC(=O)[C@@H](N)CC(=O)O)CSSC[C@@H]2NC(=O)[C@@H]3CSSC[C@@H](C(=O)N[C@@H](CCCCN)C(=O)N[C@@H](Cc4ccc(O)cc4)C(=O)N[C@H](C(=O)N[C@@H](Cc4ccccc4)C(N)=O)C(C)C)NC(=O)[C@H](Cc4c[nH]c5ccccc45)NC(=O)[C@H](CCCCN)NC(=O)[C@H](Cc4c[nH]cn4)NC(=O)[C@H]([C@@H](C)O)NC(=O)[C@H](CCCNC(=N)N)NC(=O)[C@H](CO)NC(=O)[C@H](CSSC[C@H](NC(=O)[C@H](CCCCN)NC(=O)[C@H](CCCNC(=N)N)NC1=O)C(=O)N[C@@H](CC(=O)O)C(=O)N1CCC[C@H]1C(=O)N[C@@H](CCC(=O)O)C(=O)N[C@@H](CC(N)=O)C(=O)N[C@@H](CC(=O)O)C(=O)N[C@@H](CCCCN)C(=O)N3)NC(=O)[C@H](C(C)C)NC(=O)[C@H](CC(C)C)NC(=O)[C@H](CC(N)=O)NC(=O)[C@@H]1CCCN1C(=O)[C@H](CCCNC(=N)N)NC2=O` [compound 701] (H-DCLGAMRKCDPENDKCCRPNLVCSRTHKWCKYVF-NH2; disulfide 2-17, 9-23, 16-30): the IC50 is 1500 nM in assay [1] (use-dependent protocol, hNav1.3); 970 nM in assay [2] (use-dependent protocol, hNav1.7); 43 µM in assay [3] (use-dependent protocol, hNav1.5).
For the compound `C#CC[C@@H]1NC(=O)[C@@H]2CCCN2C(=O)[C@H]([C@@H](C)CC)NC(=O)[C@@H]2CSSC[C@@H]3NC(=O)[C@H](C(C)C)NC(=O)[C@H](CC(C)C)NC(=O)[C@H](CC(N)=O)NC(=O)[C@@H]4CCCN4C(=O)[C@H](CCCNC(=N)N)NC(=O)[C@H](CSSC[C@H](NC(=O)[C@@H](N)CC(=O)O)C(=O)N[C@@H](CC(C)C)C(=O)NCC(=O)N[C@@H](C)C(=O)N[C@@H](Cc4ccccc4)C(=O)N[C@@H](CCCNC(=N)N)C(=O)N[C@@H](CCCCN)C(=O)N2)NC(=O)[C@H](CSSC[C@@H](C(=O)N[C@@H](CCCCN)C(=O)N[C@@H](Cc2ccc(O)cc2)C(=O)N[C@H](C(=O)N[C@@H](Cc2ccccc2)C(N)=O)C(C)C)NC(=O)[C@H](Cc2c[nH]c4ccccc24)NC(=O)[C@H](CCCNC(=N)N)NC(=O)[C@H](Cc2c[nH]cn2)NC(=O)[C@H](CC(C)C)NC(=O)[C@H](CCCNC(=N)N)NC(=O)[C@H](CO)NC3=O)NC(=O)[C@H](CCCCN)NC(=O)[C@H](CC(=O)O)NC(=O)[C@H](CC(N)=O)NC1=O` [compound 803], the IC50 in assay [1] (use-dependent block, hNav1.3) is 120 nM; in assay [2] (use-dependent block, hNav1.7), 130 nM; in assay [3] (use-dependent block, hNav1.5) it was 36.5 µM.
On the same counts, the results for `C#CC[C@H](NC(C)=O)C(=O)NCCCC[C@@H]1NC(=O)[C@H](CC(=O)O)NC(=O)[C@@H]2CCCN2C(=O)[C@H]([C@@H](C)CC)NC(=O)[C@@H]2CSSC[C@@H]3NC(=O)[C@H](C(C)C)NC(=O)[C@H](CC(C)C)NC(=O)[C@H](CC(N)=O)NC(=O)[C@@H]4CCCN4C(=O)[C@H](CCCNC(=N)N)NC(=O)[C@H](CSSC[C@H](NC(=O)[C@@H](N)CC(=O)O)C(=O)N[C@@H](CC(C)C)C(=O)NCC(=O)N[C@@H](CC)C(=O)N[C@@H](CC(C)C)C(=O)N[C@@H](CCCNC(=N)N)C(=O)N[C@@H](CCCCN)C(=O)N2)NC(=O)[C@H](CSSC[C@@H](C(=O)N[C@@H](CCCCN)C(=O)N[C@@H](Cc2ccc(O)cc2)C(=O)N[C@H](C(=O)N[C@@H](Cc2ccccc2)C(N)=O)C(C)C)NC(=O)[C@H](Cc2c[nH]c4ccccc24)NC(=O)[C@H](CCCCN)NC(=O)[C@H](Cc2c[nH]cn2)NC(=O)[C@H]([C@@H](C)O)NC(=O)[C@H](CCCNC(=N)N)NC(=O)[C@H](CO)NC3=O)NC(=O)[C@H](CCCCN)NC(=O)[C@H](CC(=O)O)NC1=O` [compound 799] (H-DCLG[Abu]LRKCIPDK([Pra-Ac])DKCCRPNLVCSRTHKWCKYVF-NH2; disulfide 2-17, 9-23, 16-30) are 700 nM, 750 nM and 28.1 µM.
The matching figures for `CC[C@H](C)[C@@H]1NC(=O)[C@@H](NC(=O)[C@H](CCCCN)NC(=O)[C@H](CCCNC(=N)N)NC(=O)[C@H](CCSC)NC(=O)[C@H](Cc2ccccc2)NC(=O)CNC(=O)[C@H](CC(C)C)NC(=O)[C@H](C)NC(=O)[C@@H](N)CC(=O)O)CSSC[C@@H]2NC(=O)[C@H](C(C)C)NC(=O)[C@H](CC(C)C)NC(=O)[C@H](CC(N)=O)NC(=O)[C@@H]3CCCN3C(=O)[C@H](CCCNC(=N)N)NC(=O)[C@H](C)NC(=O)[C@H](CSSC[C@@H](C(=O)N[C@@H](CCCCN)C(=O)N[C@@H](Cc3ccc(O)cc3)C(=O)N[C@H](C(=O)N[C@@H](Cc3ccccc3)C(N)=O)C(C)C)NC(=O)[C@H](Cc3c[nH]c4ccccc34)NC(=O)[C@H](CCCCN)NC(=O)[C@H](Cc3c[nH]cn3)NC(=O)[C@H]([C@@H](C)O)NC(=O)[C@H](CCCNC(=N)N)NC(=O)[C@H](CO)NC2=O)NC(=O)[C@H](CCCCN)NC(=O)[C@H](CC(=O)O)NC(=O)[C@H](CC(N)=O)NC(=O)[C@H](CC(=O)O)NC(=O)[C@@H]2CCCN2C1=O` [compound 140] (H-DALGFMRKCIPDNDKCARPNLVCSRTHKWCKYVF-NH2; disulfide 9-23, 16-30): 790 nM, 2450 nM and 18.9 µM.
Consider `CC[C@H](C)[C@H](NC(=O)[C@H](Cc1ccc(O)cc1)NC(=O)[C@H](CCCCN)NC(=O)[C@@H]1CSSC[C@@H]2NC(=O)[C@H](CCCCN)NC(=O)[C@H](CC(=O)O)NC(=O)[C@H](CC(N)=O)NC(=O)[C@H](CC(=O)O)NC(=O)[C@@H]3CCCN3C(=O)[C@H]([C@@H](C)CC)NC(=O)[C@@H]3CSSC[C@H](NC(=O)[C@H](C(C)C)NC(=O)[C@H](CC(C)C)NC(=O)[C@H](CC(N)=O)NC(=O)[C@@H]4CCCN4C(=O)[C@H](CCCNC(=N)N)NC(=O)[C@H](CSSC[C@H](NC(=O)[C@@H](N)CC(=O)O)C(=O)N[C@@H](CC(C)C)C(=O)NCC(=O)N[C@@H](Cc4ccccc4)C(=O)N[C@@H](CCSC)C(=O)N[C@@H](CCCNC(=N)N)C(=O)N[C@@H](CCCCN)C(=O)N3)NC2=O)C(=O)N[C@@H](CO)C(=O)N[C@@H](CCCNC(=N)N)C(=O)N[C@@H]([C@@H](C)O)C(=O)N[C@@H](Cc2c[nH]cn2)C(=O)N[C@@H](CCCCN)C(=O)N[C@@H](Cc2c[nH]c3ccccc23)C(=O)N1)C(=O)N[C@@H](Cc1ccccc1)C(N)=O` [compound 248] (H-DCLGFMRKCIPDNDKCCRPNLVCSRTHKWCKYIF-NH2; disulfide 2-17, 9-23, 16-30), for which the IC50 in assay [1] (Table 26, use, […]) came to 90 nM; in assay [2] (Table 26, use, […]) it was 150 nM; in assay [3] (Table 26, use, […]) it was 6.89 µM.
